Data reported in patent publication US12054660B2, “Compound, composition, cured substance, optically anisotropic body, optical element, and light guide element” (FUJIFILM Corporation, priority 2021, dated 2024).

How the values were obtained:
Format in all cases: physicochemical
[1] = Evaluation of light resistance of optically anisotropic layer; conditions: rate of change in Re of layer (25 parts compound/75 parts L-1) after xenon irradiation 50 hours, 63° C., 50% RH, oxygen-blocking
Protocol: (§1) As shown below, the durability of the optically anisotropic layer produced using the composition containing each of the compounds A-1 and A-3 to A-20, and the compounds RA-1 and RA-2 was evaluated.
(§2) A coating composition having the following composition was prepared and applied by spin coating onto a rubbing-treated glass attached with an alignment film.
(§3) The polymerizable liquid crystal compound L-1 is a mixture obtained by mixing at a ratio of the following L-1-1/L-1-2/L-1-3=84/14/2 (in terms of mass ratio).
The produced optically anisotropic layers for light resistance/durability tests were irradiated with light using a Super Xenon Weather Meter SX75 manufactured by Suga Test Instruments Co., Ltd. Using KU-1000100 manufactured by King Seisakusho Co., Ltd. as an ultraviolet ray cut filter, irradiation with 5 million 1× of light was carried out for 50 hours under the oxygen-blocking conditions to carry out a light resistance test. The temperature of the specimen to be tested (the temperature inside the test device) was set to 63° C. The relative humidity in the test device was 50% RH.
The Re of the optically anisotropic layer before and after the light resistance test was measured, the light resistance in a case where the rate of change in Re described below was less than 10% was evaluated as A, and the light resistance in a case where the rate of change in Re was 10% or more was evaluated as B. The smaller the rate of change in Re, the more excellent the light resistance.
(§4) Re is an in-plane retardation. Rate of change in Re (%)=[100×{|(Re after test)−(Re before test)|}/(Re before test)]
(§5) Re was measured with Axoscan manufactured by Axometrics, Inc. at a wavelength of 550 nm, and the measurement temperature was set to room temperature.

[2] = Evaluation of solubility in methyl ethyl ketone; conditions: precipitation concentration in methyl ethyl ketone at room temperature (25° C.)
Protocol: The solubility of each of the compounds of Examples and Comparative Examples (the compounds A-1, A-3 to A-20, and the compounds RA-1 and RA-2) in methyl ethyl ketone was evaluated. A solution in which the compound was ultrasonically dissolved or dissolved by heating was produced.

[3] = Evaluation of durability (moisture-heat resistance test) of optically anisotropic layer; conditions: rate of change in Re of layer (25 parts compound/75 parts L-1) after 136 hours at 100° C., 95% RH
Protocol: as §1, §2, §3, §4, §5
The produced optically anisotropic layer was allowed to be left for 136 hours at 100° C. and a relative humidity of 95% RH, whereby a moisture-heat resistance test was carried out. The rate of change in Re before and after the durability test was evaluated, the durability in a case where the rate of change in Re was less than 10% was evaluated as A, and the durability in a case where the rate of change in Re was 10% or more was evaluated as B. The smaller the rate of change in Re, the more excellent the durability.

[4] = Measurement of Δn (refractive index anisotropy), wedge-shaped liquid crystal cell; conditions: 550 nm, 30° C. or lower limit temperature of nematic phase+0 to 10° C.; some extrapolated from 1/2 mixture with L-1-1
Protocol: The Δn of each of the compounds of Examples and Comparative Examples (the compounds A-1, A-3 to A-20, and the compounds RA-1 and RA-2), which are the compounds to be measured, was measured by a method using a wedge-shaped liquid crystal cell described on page 202 in the Liquid crystal handbook (edited by the liquid crystal handbook editorial board, published by Maruzen Co., Ltd., 2000). An was defined as a measured value at a wavelength of 550 nm at 30° C. or the lower limit temperature of the nematic phase+0° C. to 10° C. In a case of a compound which is liable to crystallize or a compound having no liquid crystallinity, evaluation was carried out using a mixture thereof with the other liquid crystal compound, and Δn was estimated from the extrapolated value of the measured value thereof. The following L-1-1 was used as the other liquid crystal compound. As the above mixture, a mixture obtained by mixing at a ratio of the compound to be measured/the L-1-1=1/2 (in terms of mass ratio) was used.
A case where Δn was 0.35 or more was evaluated as A, a case where Δn was 0.32 or more and less than 0.35 was evaluated as B, a case where Δn was 0.30 or more and less than 0.32 was evaluated as C, and a case where Δn was less than 0.30 was evaluated as D. The results are shown in Table 1.

[5] = Evaluation of liquid crystallinity (hot stage, polarization microscope); parameters: key: A case of having liquid crystallinity was evaluated as A; a case of having no liquid crystallinity was evaluated as B; conditions: heated on a hot stage
Source text: As a specific observation method, optical anisotropy and fluidity derived from the liquid crystal phase can be checked by carrying out an observation under a polarization microscope while heating or lowering the temperature of the compound with a hot stage or the like.
The respective compounds of Examples and Comparative Examples (the compounds A-1, A-3 to A-20, and the compounds RA-1 and RA-2) were heated on a hot stage and observed with a polarization microscope, and the phase transition temperature was measured to evaluate the presence or absence of liquid crystallinity. A case of having liquid crystallinity was evaluated as A, and a case of having no liquid crystallinity was evaluated as B. The results are shown in Table 1.

Row | Liquid crystallinity [5] | SMILES | Light resistance [1] | Solubility [2] | Durability [3] | Δn [4]
1 | A | C=CC(=O)OCCSc1ccc(C#Cc2ccc(COc3ccc(C#Cc4ccc(SCCOC(=O)C=C)cc4)cc3C)cc2)cc1 [Compound A-6] | A (the light resistance in a case where the rate of change in Re described below was less than 10% was evaluated as A) | A (the solubility in a case where the precipitation concentration was 10% by mass or more was evaluated as A) | A (the durability in a case where the rate of change in Re was less than 10% was evaluated as A) | A (A case where Δn was 0.35 or more was evaluated as A)
2 | A | C=CC(=O)OCCCCSc1ccc(C#Cc2ccc(NC(=O)c3ccc(SCCCCOC(=O)C=C)cc3)c(C(F)(F)F)c2)cc1 [RA-2, reference compound] | B (the light resistance in a case where the rate of change in Re was 10% or more was evaluated as B) | B (the solubility in a case where the precipitation concentration was less than 10% by mass was evaluated as B) | A (the durability in a case where the rate of change in Re was less than 10% was evaluated as A) | C (a case where Δn was 0.30 or more and less than 0.32 was evaluated as C)
